Source: PubChem BioAssay (NCI)
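These data come from cells grown in 96-well plates and exposed to compound for 48 hours at five concentrations. The concentration for full growth arrest is given as TGI.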

Experiments:
Test in all cases: growth of human tumour cells (NCI), 48 h
SW-620 colon = tested on: SW-620 colon
UACC-62 melanoma = tested on: UACC-62 melanoma
EKVX NSCLC = tested on: EKVX NSCLC
HOP-92 NSCLC = tested on: HOP-92 NSCLC
MALME-3M melanoma = tested on: MALME-3M melanoma
PC-3 prostate = tested on: PC-3 prostate
SF-539 CNS = tested on: SF-539 CNS
OVCAR-4 ovarian = tested on: OVCAR-4 ovarian
OVCAR-3 ovarian = tested on: OVCAR-3 ovarian
NCI/ADR-RES ovarian = tested on: NCI/ADR-RES ovarian
IGROV1 ovarian = tested on: IGROV1 ovarian
UO-31 renal = tested on: UO-31 renal
HOP-62 NSCLC = tested on: HOP-62 NSCLC
NCI-H460 lung = tested on: NCI-H460 lung
SF-268 CNS = tested on: SF-268 CNS
NCI-H522 lung = tested on: NCI-H522 lung
COLO 205 colon = tested on: COLO 205 colon
MCF7 breast = tested on: MCF7 breast
MDA-N = tested on: MDA-N
CCRF-CEM leukemia = tested on: CCRF-CEM leukemia
DU-145 prostate = tested on: DU-145 prostate
TK-10 renal = tested on: TK-10 renal
A498 renal = tested on: A498 renal
SK-MEL-28 melanoma = tested on: SK-MEL-28 melanoma
OVCAR-5 ovarian = tested on: OVCAR-5 ovarian
OVCAR-8 ovarian = tested on: OVCAR-8 ovarian
SK-OV-3 ovarian = tested on: SK-OV-3 ovarian
MDA-MB-231 breast = tested on: MDA-MB-231 breast
SF-295 CNS = tested on: SF-295 CNS
SN12C renal = tested on: SN12C renal
A549 NSCLC = tested on: A549 NSCLC
M14 melanoma = tested on: M14 melanoma
NCI-H23 lung = tested on: NCI-H23 lung
LOX IMVI melanoma = tested on: LOX IMVI melanoma
T-47D breast = tested on: T-47D breast
HT29 colon = tested on: HT29 colon
RPMI-8226 leukemia = tested on: RPMI-8226 leukemia
SNB-75 CNS = tested on: SNB-75 CNS
RXF 393 renal = tested on: RXF 393 renal
MDA-MB-435 = tested on: MDA-MB-435
KM12 colon = tested on: KM12 colon
ACHN renal = tested on: ACHN renal
U251 CNS = tested on: U251 CNS
SK-MEL-5 melanoma = tested on: SK-MEL-5 melanoma
786-0 renal = tested on: 786-0 renal
HL-60(TB) leukemia = tested on: HL-60(TB) leukemia
HCT-116 colon = tested on: HCT-116 colon
HS 578T breast = tested on: HS 578T breast
SK-MEL-2 melanoma = tested on: SK-MEL-2 melanoma
SR leukemia = tested on: SR leukemia
BT-549 breast = tested on: BT-549 breast
HCC-2998 colon = tested on: HCC-2998 colon
CAKI-1 renal = tested on: CAKI-1 renal
NCI-H226 lung = tested on: NCI-H226 lung

Measured: TGI

CCOc1ccc(N=NC2C(=O)N(C(=O)CC(=O)Nc3ccc(Cl)cc3)N=C2C)cc1 (centres undefined)
> 100 µM: SW-620 colon | UACC-62 melanoma | EKVX NSCLC | HOP-92 NSCLC | MALME-3M melanoma | PC-3 prostate | SF-539 CNS | OVCAR-4 ovarian | OVCAR-3 ovarian | NCI/ADR-RES ovarian | IGROV1 ovarian | UO-31 renal | HOP-62 NSCLC | NCI-H460 lung | SF-268 CNS | NCI-H522 lung | COLO 205 colon | MCF7 breast | MDA-N | CCRF-CEM leukemia | DU-145 prostate | TK-10 renal | A498 renal | SK-MEL-28 melanoma | OVCAR-5 ovarian | OVCAR-8 ovarian | SK-OV-3 ovarian | MDA-MB-231 breast | SF-295 CNS | SN12C renal | A549 NSCLC | M14 melanoma | NCI-H23 lung | LOX IMVI melanoma | T-47D breast | HT29 colon | RPMI-8226 leukemia | SNB-75 CNS | RXF 393 renal | MDA-MB-435 | KM12 colon | ACHN renal | U251 CNS | SK-MEL-5 melanoma | 786-0 renal | HL-60(TB) leukemia | HCT-116 colon | HS 578T breast | SK-MEL-2 melanoma | SR leukemia | BT-549 breast | HCC-2998 colon | CAKI-1 renal | NCI-H226 lung
